In US12344603B2 (Genentech, Inc., priority 2020, dated 2025):
Counter-ions that a name gives are not always drawn.

Biological target: IRE1α (Homo sapiens (Human), UniProt O75460, D688N)
Assay: IRE1α TR-FRET competition binding assay (IRE1α HTRF)
Conditions: TR-FRET competition binding to kinase domain of IRE1α
In short: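 Kinase domain (0.25 nM) pre-bound to 2 nM Eu anti-His antibody for 1 h at 4° C in HEPES pH 7.5/MgCl2/Brij 35/DTT/gamma globulin buffer, then mixed with compounds and 2 nM Alexa 647 ATP-competitive probe. 1 h at room temperature; probe displacement read as TR-FRET (Ex 347 nm, Em 665/615 nm).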

Sequence of IRE1α (O75460 547-977 D688N): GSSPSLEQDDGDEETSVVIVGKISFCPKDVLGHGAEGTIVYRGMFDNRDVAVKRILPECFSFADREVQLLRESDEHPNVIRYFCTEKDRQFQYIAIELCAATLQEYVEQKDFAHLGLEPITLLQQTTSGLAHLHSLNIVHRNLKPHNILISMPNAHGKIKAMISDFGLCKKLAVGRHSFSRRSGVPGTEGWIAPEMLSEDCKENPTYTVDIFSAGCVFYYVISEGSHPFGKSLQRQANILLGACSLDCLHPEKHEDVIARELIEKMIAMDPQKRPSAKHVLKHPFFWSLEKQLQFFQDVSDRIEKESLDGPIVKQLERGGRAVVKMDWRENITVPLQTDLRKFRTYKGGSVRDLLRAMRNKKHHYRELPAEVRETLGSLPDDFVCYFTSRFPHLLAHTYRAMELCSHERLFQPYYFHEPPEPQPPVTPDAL

Compound	IC50
CC(C)n1c(=O)c(-c2ccc(NS(=O)(=O)CC3CCCCC3)nc2)cc2cnc(N[C@H]3CC[C@H](N(C)C)CC3)nc21 [Compound 152, 1-Cyclohexyl-N-(5-(2-(((1r,4r)-4-(dimethylamino)cyclohexyl)amino)-8-isopropyl-7-oxo-7,8-dihydropyrido[2,3-d]pyrimidin-6-yl)pyridin-2-yl)methanesulfonamide]	180 pM
CC(C)n1c(=O)c(-c2ccc(NS(=O)(=O)Cc3ccc(F)cc3)c(F)c2)cc2cnc(N[C@H]3CC[C@H](N(C)CCF)CC3)nc21 [Compound 155, N-(2-Fluoro-4-(2-(((1r,4r)-4-((2-fluoroethyl)(methyl)amino)cyclohexyl)amino)-8-isopropyl-7-oxo-7,8-dihydropyrido[2,3-d]pyrimidin-6-yl)phenyl)-1-(4-fluorophenyl)methanesulfonamide]	230 pM
CC(C)n1c(=O)c(-c2ccc(NS(=O)(=O)CC3CC(F)(F)C3)c(F)c2)cc2cnc(N[C@H]3CC[C@H](N(C)CCF)CC3)nc21 [Compound 156, 1-(3,3-Difluorocyclobutyl)-N-(2-fluoro-4-(2-(((1r,4r)-4-((2-fluoroethyl)(methyl)amino)cyclohexyl)amino)-8-isopropyl-7-oxo-7,8-dihydropyrido[2,3-d]pyrimidin-6-yl)phenyl)methanesulfonamide]	180 pM
CC(C)n1c(=O)c(-c2ccc(NS(=O)(=O)CCC(F)(F)F)c(F)c2)cc2cnc(N[C@H]3CC[C@H](N(C)CCF)CC3)nc21 [Compound 157, 3,3,3-trifluoro-N-(2-Fluoro-4-(2-(((1r,4r)-4-((2-fluoroethyl)(methyl)amino)cyclohexyl)amino)-8-isopropyl-7-oxo-7,8-dihydropyrido[2,3-d]pyrimidin-6-yl)phenyl)propane-1-sulfonamide]	140 pM
CC(C)n1c(=O)c(-c2cc(F)c(NS(=O)(=O)Cc3ccn(CC(F)(F)F)n3)c(F)c2F)cc2cnc(N[C@@H]3CNC[C@@H](F)C3)nc21 [Compound 158, N-(2,3,6-Trifluoro-4-(2-(((3S,5S)-5-fluoropiperidin-3-yl)amino)-8-isopropyl-7-oxo-7,8-dihydropyrido[2,3-d]pyrimidin-6-yl)phenyl)-1-(1-(2,2,2-trifluoroethyl)-1H-pyrazol-3-yl)methanesulfonamide]	570 pM
CCCS(=O)(=O)Nc1ccc(-c2nc3cnc(N[C@H]4CC[C@H](N(C)C)CC4)nc3n(C(C)C)c2=O)c(F)c1 [Compound 161, N-(4-(2-(((1r,4r)-4-(Dimethylamino)cyclohexyl)amino)-8-isopropyl-7-oxo-7,8-dihydropteridin-6-yl)-3-fluorophenyl)propane-1-sulfonamide]	180 pM
CC(C)n1c(=O)c(-c2ccc(NS(=O)(=O)N3CCCCC3)c(F)c2)nc2cnc(N[C@@H]3CNC[C@@H](F)C3)nc21 [Compound 162, N-(2-Fluoro-4-(2-(((3S,5S)-5-fluoropiperidin-3-yl)amino)-8-isopropyl-7-oxo-7,8-dihydropteridin-6-yl)phenyl)piperidine-1-sulfonamide]	1300 pM
CC(C)n1c(=O)c(-c2ccc(NS(=O)(=O)N3CCCC3)c(F)c2)nc2cnc(N[C@@H]3CNC[C@@H](F)C3)nc21 [Compound 163, N-(2-Fluoro-4-(2-(((3S,5S)-5-fluoropiperidin-3-yl)amino)-8-isopropyl-7-oxo-7,8-dihydropteridin-6-yl)phenyl)pyrrolidine-1-sulfonamide]	970 pM
CC(C)n1c(=O)c(-c2ccc(NS(=O)(=O)N(C)C)c(F)c2)nc2cnc(N[C@@H]3CNC[C@@H](F)C3)nc21 [Compound 164, 6-(4-(Dimethylsulfamoylamino)-3-fluoro-phenyl)-2-(((3S,5S)-5-fluoro-3-piperidyl)amino)-8-isopropyl-7-oxo-pteridine]	430 pM
CCC(F)(F)CS(=O)(=O)Nc1ccc(-c2nc3cnc(N[C@H]4CC[C@H](N(C)C)CC4)nc3n(C(C)C)c2=O)cc1F [Compound 165, N-(4-(2-(((1r,4r)-4-(Dimethylamino)cyclohexyl)amino)-8-isopropyl-7-oxo-7,8-dihydropteridin-6-yl)-2-fluorophenyl)-2,2-difluorobutane-1-sulfonamide hydrochloride]	100 pM
Cc1ccc(CS(=O)(=O)Nc2ccc(-c3nc4cnc(N[C@@H]5CNC[C@@H](F)C5)nc4n(C(C)C)c3=O)cc2F)c(C#N)c1 [Compound 166, 1-(2-Cyano-4-methylphenyl)-N-(2-fluoro-4-(2-(((3S,5S)-5-fluoropiperidin-3-yl)amino)-8-isopropyl-7-oxo-7,8-dihydropteridin-6-yl)phenyl)methanesulfonamide]	90 pM
CC(C)n1c(=O)c(-c2ccc(NS(=O)(=O)c3ccccc3Cl)c(F)c2)nc2cnc(N[C@H]3CC[C@H](N(C)C)CC3)nc21 [Compound 167, 2-Chloro-N-(4-(2-(((1r,4r)-4-(dimethylamino)cyclohexyl)amino)-8-isopropyl-7-oxo-7,8-dihydropteridin-6-yl)-2-fluorophenyl)benzenesulfonamide]	180 pM
CC(C)n1c(=O)c(-c2c(F)cc(NS(=O)(=O)CCC(F)(F)F)cc2F)nc2cnc(N[C@H]3CC[C@H](N(C)C)CC3)nc21 [Compound 169, N-(4-(2-(((1r,4r)-4-(Dimethylamino)cyclohexyl)amino)-8-isopropyl-7-oxo-7,8-dihydropteridin-6-yl)-3,5-difluorophenyl)-3,3,3-trifluoropropane-1-sulfonamide]	690 pM
Cc1ccc(CS(=O)(=O)Nc2c(F)cc(-c3nc4cnc(N[C@@H]5CNC[C@@H](F)C5)nc4n(C(C)C)c3=O)c(F)c2F)cc1 [Compound 170, 1-p-Tolyl-N-(2,3,6-trifluoro-4-(2-(((3S,5S)-5-fluoropiperidin-3-yl)amino)-8-isopropyl-7-oxo-7,8-dihydropteridin-6-yl)phenyl)methanesulfonamide hydrochloride]	130 pM
CC(C)n1c(=O)c(-c2cc(F)c(NS(=O)(=O)Cc3ccc(F)cc3)c(F)c2F)nc2cnc(N[C@@H]3CNC[C@@H](F)C3)nc21 [Compound 171, 1-(4-Fluorophenyl)-N-(2,3,6-trifluoro-4-(2-(((3S,5S)-5-fluoropiperidin-3-yl)amino)-8-isopropyl-7-oxo-7,8-dihydropteridin-6-yl)phenyl)methanesulfonamide hydrochloride]	120 pM
CC(C)n1c(=O)c(-c2c(F)cc(NS(=O)(=O)CCC(F)(F)F)c(F)c2F)nc2cnc(N[C@H]3CC[C@H](N(C)C)CC3)nc21 [Compound 172, N-(4-(2-(((1r,4r)-4-(Dimethylamino)cyclohexyl)amino)-8-isopropyl-7-oxo-7,8-dihydropteridin-6-yl)-2,3,5-trifluorophenyl)-3,3,3-trifluoropropane-1-sulfonamide hydrochloride]	350 pM
COc1nc(NS(=O)(=O)c2ccccc2Cl)ccc1-c1nc2cnc(N[C@H]3CC[C@H](N(C)C)CC3)nc2n(C(C)C)c1=O [Compound 173, 2-Chloro-N-(5-(2-(((1r,4r)-4-(dimethylamino)cyclohexyl)amino)-8-isopropyl-7-oxo-7,8-dihydropteridin-6-yl)-6-methoxypyridin-2-yl)benzenesulfonamide]	270 pM
CC(C)n1c(=O)c(-c2cc(F)c(NS(=O)(=O)Cc3ccc(F)cc3)cc2F)nc2cnc(N[C@H]3CC[C@H](N(C)C)CC3)nc21 [Compound 174, N-(4-(2-(((1r,4r)-4-(Dimethylamino)cyclohexyl)amino)-8-isopropyl-7-oxo-7,8-dihydropteridin-6-yl)-2,5-difluorophenyl)-1-(4-fluorophenyl)methanesulfonamide hydrochloride]	260 pM
CC(C)n1c(=O)c(-c2cc(F)c(NS(=O)(=O)Cc3ccc(F)cc3)c(F)c2F)nc2cnc(N[C@H]3CC[C@H](N(C)C)CC3)nc21 [Compound 175, N-(4-(2-(((1r,4r)-4-(Dimethylamino)cyclohexyl)amino)-8-isopropyl-7-oxo-7,8-dihydropteridin-6-yl)-2,3,6-trifluorophenyl)-1-(4-fluorophenyl)methanesulfonamide hydrochloride]	140 pM
CC(C)n1c(=O)c(-c2ccc(NS(=O)(=O)Cc3ccc(F)cc3)c(F)c2)nc2cnc(N[C@H]3CC[C@H](N(C)CCF)CC3)nc21 [Compound 176, N-(2-Fluoro-4-(2-(((1r,4r)-4-((2-fluoroethyl)(methyl)amino)cyclohexyl)amino)-8-isopropyl-7-oxo-7,8-dihydropteridin-6-yl)phenyl)-1-(4-fluorophenyl)methanesulfonamide]	140 pM
CC(C)n1c(=O)c(-c2ccc(NS(=O)(=O)CCC(F)(F)F)c(F)c2)nc2cnc(N[C@H]3CC[C@H](N(C)CCF)CC3)nc21 [Compound 177, 3,3,3-Trifluoro-N-(2-fluoro-4-(2-(((1r,4r)-4-((2-fluoroethyl)(methyl)amino)cyclohexyl)amino)-8-isopropyl-7-oxo-7,8-dihydropteridin-6-yl)phenyl)propane-1-sulfonamide]	240 pM
CC(C)n1c(=O)c(-c2ccc(NS(=O)(=O)c3ccccc3Cl)nc2)nc2cnc(N[C@H]3CC[C@H](N(C)C)CC3)nc21 [Compound 178, 2-Chloro-N-(5-(2-(((1r,4r)-4-(dimethylamino)cyclohexyl)amino)-8-isopropyl-7-oxo-7,8-dihydropteridin-6-yl)pyridin-2-yl)benzenesulfonamide]	260 pM
CC(C)n1c(=O)c(-c2ccc(NS(=O)(=O)CC3CC(F)(F)C3)c(F)c2)nc2cnc(N[C@H]3CC[C@H](N(C)CCF)CC3)nc21 [Compound 180, 1-(3,3-Difluorocyclobutyl)-N-(2-fluoro-4-(2-(((1r,4r)-4-((2-fluoroethyl)(methyl)amino)cyclohexyl)amino)-8-isopropyl-7-oxo-7,8-dihydropteridin-6-yl)phenyl)methanesulfonamide]	290 pM
CC(C)n1c(=O)c(-c2ccc(NS(=O)(=O)CCN3CC(F)(F)C3)c(F)c2)nc2cnc(N[C@H]3CC[C@H](N(C)C)CC3)nc21 [Compound 182, 2-(3,3-Difluoroazetidin-1-yl)-N-(4-(2-(((1r,4r)-4-(dimethylamino)cyclohexyl)amino)-8-isopropyl-7-oxo-7,8-dihydropteridin-6-yl)-2-fluorophenyl)ethane-1-sulfonamide]	870 pM
